# Data taken from patent US20050054696A1, “Indole compounds and medicinal use thereof” (priority 2001, published 2005).
# Biological target: T1, recombinant human liver glycogen phosphorylase (HLGPa) (Homo sapiens, UniProt P06737)
# T1 construct: made in house; host or cells: Sf9 insect cells (unpurified cell lysate used as enzyme solution)
# T1 sequence (P06737 1-847): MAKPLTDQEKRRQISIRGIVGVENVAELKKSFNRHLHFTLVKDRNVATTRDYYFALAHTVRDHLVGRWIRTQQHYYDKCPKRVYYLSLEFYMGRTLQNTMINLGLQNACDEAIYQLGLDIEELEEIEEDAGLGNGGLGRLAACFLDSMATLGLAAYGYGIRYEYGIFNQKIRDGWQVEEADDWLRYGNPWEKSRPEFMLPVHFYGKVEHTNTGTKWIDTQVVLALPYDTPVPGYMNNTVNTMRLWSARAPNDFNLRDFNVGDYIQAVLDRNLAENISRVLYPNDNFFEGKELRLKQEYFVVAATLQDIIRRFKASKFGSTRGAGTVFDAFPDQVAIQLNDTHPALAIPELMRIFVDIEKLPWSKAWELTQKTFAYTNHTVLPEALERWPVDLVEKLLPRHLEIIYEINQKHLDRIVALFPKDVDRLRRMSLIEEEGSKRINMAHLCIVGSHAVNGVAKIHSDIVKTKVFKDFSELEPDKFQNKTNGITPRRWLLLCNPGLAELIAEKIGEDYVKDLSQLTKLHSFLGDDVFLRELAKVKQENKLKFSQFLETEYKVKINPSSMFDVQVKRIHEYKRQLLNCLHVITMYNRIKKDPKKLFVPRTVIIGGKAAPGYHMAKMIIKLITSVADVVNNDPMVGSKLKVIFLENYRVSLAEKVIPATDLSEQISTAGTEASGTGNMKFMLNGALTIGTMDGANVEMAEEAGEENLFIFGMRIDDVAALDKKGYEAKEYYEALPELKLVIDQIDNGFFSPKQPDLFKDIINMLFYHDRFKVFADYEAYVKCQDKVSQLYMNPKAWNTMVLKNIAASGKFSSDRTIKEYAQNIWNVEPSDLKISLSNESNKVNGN
# Assay: Measurement of liver glycogen phosphorylase activity (enzyme inhibitory activity against HLGPa)
# Type: biochemical
# Details: Sf9 cell lysate expressing recombinant enzyme; reverse reaction (glycogen synthesis from G1-P), phosphate by malachite green, 60 min room temperature
# Method: Measurement Method of Liver Glycogen Phosphorylase Activity
# The measurement of the glycogen phosphorylase activity was performed by measuring the concentration of phosphoric acic produced by a reverse reaction, that is, a reaction wherein the glycogen phosphorylase synthesizes glycogen from G1-P. A cell lysate of Sf9 cells that forcibly expressed recombinant human liver glycogen phosphorylase was diluted to a protein amount of 80 μg/mL with 1 mM imidazole-hydrochloric acid buffer (pH 7.0, containing 0.2 mM PMSF, 250 mM NaCl, 0.025% BSA) and the dilute cell lysate was used as an enzyme solution of human liver glycogen phosphorylase. As a substrate solution, 25 mM Tris-HCl buffer (pH 7.2, containing 250 mM KCl, 6.25 mM MgCl2, 6.25 mM EGTA, 1.25 mM glucose-1-phosphate, 2.5 mg/ml glycogen, 7.5 mM glucose) was used. The test drug was dissolved in 0.5% dimethyl sulfoxide (DMSO). To a mixture of the test drug (10 μl) and the substrate solution (20 μl) was added an enzyme solution (20 μl) to start the enzyme reaction. As a control, 0.5% DMSO was added instead of the test drug. One free of addition of enzyme was used as a blank. The mixture was reacted at room temperature for 60 min, and a malachite green solution (50 μl) was added. The mixture was further reacted at room temperature for 20 min and absorbance at 650 nm was measured. An enzyme solution was added to the blank simultaneously with the malachite green solution and the measurement was done in the same manner. The percent inhibition (%) of the test drug was calculated from ((value of control−value of the test drug)/(value of control−value of blank))×100 (%).
row,Structure (SMILES),IC50 [µM]
1,"CC(=O)N[C@H](C(=O)NNC(=O)c1cc2cc(Cl)ccc2[nH]1)c1ccccc1 (stereo in doubt) [Example 5-19, N-(2-(2-(5-chloro-1H-indole-2-carbonyl)hydrazino)-2-oxo-1-phenylethyl)acetamide]",0.36
2,"O=C(NNC(=O)c1cc2cc(Cl)ccc2[nH]1)c1ccccc1 [Example 1, benzoic acid 2-(5-chloro-1H-indole-2-carbonyl)hydrazide]",0.038
3,"O=C(NNC(=O)c1ccccc1O)c1cc2cc(Cl)ccc2[nH]1 [Example 1-3, 2-hydroxybenzoic acid 2-(5-chloro-1H-indole-2-carbonyl)hydrazide]",0.037
4,"O=C(NNC(=O)c1cc2cc(F)ccc2[nH]1)c1ccccc1 [Example 1-9, benzoic acid 2-(5-fluoro-1H-indole-2-carbonyl)hydrazide]",0.073
5,"O=C(NNC(=O)C1CCCCC1)c1cc2cc(F)ccc2[nH]1 [Example 1-10, cyclohexanecarboxylic acid 2-(5-fluoro-1H-indole-2-carbonyl)hydrazide]",0.2
6,"O=C(NNC(=O)c1cccs1)c1cc2cc(F)ccc2[nH]1 [Example 1-11, thiophene-2-carboxylic acid 2-(5-fluoro-1H-indole-2-carbonyl)hydrazide]",0.072
7,"O=C(NNC(=O)c1cc2cc(Cl)ccc2[nH]1)c1ccc([N+](=O)[O-])cc1 [Example 1-12, 4-nitrobenzoic acid 2-(5-chloro-1H-indole-2-carbonyl)hydrazide]",0.79
8,"Cc1ccccc1C(=O)NNC(=O)c1cc2cc(Cl)ccc2[nH]1 [Example 1-13, 2-methylbenzoic acid 2-(5-chloro-1H-indole-2-carbonyl)hydrazide]",0.072
9,"Cc1ccc(C(=O)NNC(=O)c2cc3cc(Cl)ccc3[nH]2)cc1 [Example 1-14, 4-methylbenzoic acid 2-(5-chloro-1H-indole-2-carbonyl)hydrazide]",0.13
10,"COc1ccccc1C(=O)NNC(=O)c1cc2cc(Cl)ccc2[nH]1 [Example 1-15, 2-methoxybenzoic acid 2-(5-chloro-1H-indole-2-carbonyl)hydrazide]",0.12
11,"COc1cccc(C(=O)NNC(=O)c2cc3cc(Cl)ccc3[nH]2)c1 [Example 1-16, 3-methoxybenzoic acid 2-(5-chloro-1H-indole-2-carbonyl)hydrazide]",0.073
12,"Cc1cccc(C(=O)NNC(=O)c2cc3cc(Cl)ccc3[nH]2)c1 [Example 1-18, 3-methylbenzoic acid 2-(5-chloro-1H-indole-2-carbonyl)hydrazide]",0.099
13,"O=C(NNC(=O)c1ccccc1Cl)c1cc2cc(Cl)ccc2[nH]1 [Example 1-19, 2-chlorobenzoic acid 2-(5-chloro-1H-indole-2-carbonyl)hydrazide]",0.091
14,"O=C(NNC(=O)c1cc2cc(Cl)ccc2[nH]1)c1cccc(Cl)c1 [Example 1-20, 3-chlorobenzoic acid 2-(5-chloro-1H-indole-2-carbonyl)hydrazide]",0.035
15,"O=C(NNC(=O)c1cc2cc(Cl)ccc2[nH]1)c1ccc(Cl)cc1 [Example 1-21, 4-chlorobenzoic acid 2-(5-chloro-1H-indole-2-carbonyl)hydrazide]",0.049
16,"O=C(NNC(=O)C1CCCCC1)c1cc2cc(Cl)ccc2[nH]1 [Example 1-23, cyclohexanecarboxylic acid 2-(5-chloro-1H-indole-2-carbonyl)hydrazide]",0.075
17,"O=C(NNC(=O)c1ccc(Cl)cc1Cl)c1cc2cc(Cl)ccc2[nH]1 [Example 1-24, 2,4-dichlorobenzoic acid 2-(5-chloro-1H-indole-2-carbonyl)hydrazide]",0.17
18,"O=C(NNC(=O)c1c(Cl)cccc1Cl)c1cc2cc(Cl)ccc2[nH]1 [Example 1-25, 2,6-dichlorobenzoic acid 2-(5-chloro-1H-indole-2-carbonyl)hydrazide]",0.14

row,Structure (SMILES),IC50 [µM]
1,"O=C(NNC(=O)c1ccc(F)cc1F)c1cc2cc(Cl)ccc2[nH]1 [Example 1-26, 2,4-difluorobenzoic acid 2-(5-chloro-1H-indole-2-carbonyl)hydrazide]",0.018
2,"O=C(NNC(=O)c1ccccc1-c1ccccc1)c1cc2cc(Cl)ccc2[nH]1 [Example 1-27, biphenyl-2-carboxylic acid 2-(5-chloro-1H-indole-2-carbonyl)hydrazide]",0.047
3,"O=C(NNC(=O)c1cc2cc(Cl)ccc2[nH]1)c1cccc(F)c1 [Example 1-28, 3-fluorobenzoic acid 2-(5-chloro-1H-indole-2-carbonyl)hydrazide]",0.049
4,"O=C(NNC(=O)c1cc2cc(Cl)ccc2[nH]1)c1ccc(F)cc1 [Example 1-29, 4-fluorobenzoic acid 2-(5-chloro-1H-indole-2-carbonyl)hydrazide]",0.015
5,"O=C(NNC(=O)c1cc2cc(Cl)ccc2[nH]1)c1cccc(C(F)(F)F)c1 [Example 1-30, 3-trifluoromethylbenzoic acid 2-(5-chloro-1H-indole-2-carbonyl)hydrazide]",0.24
6,"O=C(NNC(=O)c1ccccc1C(F)(F)F)c1cc2cc(Cl)ccc2[nH]1 [Example 1-32, 2-trifluoromethylbenzoic acid 2-(5-chloro-1H-indole-2-carbonyl)hydrazide]",0.35
7,"Cc1ccc2[nH]c(C(=O)NNC(=O)c3ccccc3)cc2c1 [Example 1-33, benzoic acid 2-(5-methyl-1H-indole-2-carbonyl)hydrazide]",0.086
8,"CC(C)c1ccc2[nH]c(C(=O)NNC(=O)c3ccccc3N)cc2c1 [Example 1-36, 2-aminobenzoic acid 2-(5-isopropyl-1H-indole-2-carbonyl)hydrazide]",> 0.1
9,"CC(C)c1ccc2[nH]c(C(=O)NNC(=O)c3ccc(F)cc3N)cc2c1 [Example 1-37, 2-amino-4-fluorobenzoic acid 2-(5-isopropyl-1H-indole-2-carbonyl)hydrazide]",> 0.1
10,"Nc1ccccc1C(=O)NNC(=O)c1cc2cc(F)ccc2[nH]1 [Example 1-38, 2-aminobenzoic acid 2-(5-fluoro-1H-indole-2-carbonyl)hydrazide]",> 0.1
11,"Nc1ccccc1C(=O)NNC(=O)c1cc2ccc(Cl)cc2[nH]1 [Example 1-39, 2-aminobenzoic acid 2-(6-chloro-1H-indole-2-carbonyl)hydrazide]",0.81
12,"Nc1cnccc1C(=O)NNC(=O)c1cc2cc(Cl)ccc2[nH]1 [Example 1-41, 3-aminoisonicotinic acid 2-(5-chloro-1H-indole-2-carbonyl)hydrazide]",0.31
13,"O=C(NNC(=O)c1cc2cc(Cl)ccc2[nH]1)c1ccncc1 [Example 1-42, isonicotinic acid 2-(5-chloro-1H-indole-2-carbonyl)hydrazide]",0.26
14,"O=C(NNC(=O)c1cc2cc(Cl)ccc2[nH]1)c1cccnc1 [Example 1-43, nicotinic acid 2-(5-chloro-1H-indole-2-carbonyl)hydrazide]",0.095
15,"CC(=O)Nc1cccc(C(=O)NNC(=O)c2cc3cc(Cl)ccc3[nH]2)c1 [Example 1-46, N-(3-(2-(5-chloro-1H-indole-2-carbonyl)hydrazinocarbonyl)phenyl)acetamide]",0.29
16,"CC(=O)Nc1ccccc1C(=O)NNC(=O)c1cc2cc(Cl)ccc2[nH]1 [Example 1-47, N-(2-(2-(5-chloro-1H-indole-2-carbonyl)hydrazinocarbonyl)phenyl)acetamide]",0.66
17,"COC(=O)COc1ccccc1C(=O)NNC(=O)c1cc2cc(Cl)ccc2[nH]1 [Example 1-49, 2-(2-(2-(5-chloro-1H-indole-2-carbonyl)hydrazinocarbonyl)phenoxy)acetic acid methyl ester]",0.15
18,"O=C(O)COc1ccccc1C(=O)NNC(=O)c1cc2cc(Cl)ccc2[nH]1 [Example 1-50, 2-(2-(2-(5-chloro-1H-indole-2-carbonyl)hydrazinocarbonyl)phenoxy)acetic acid]",0.027
